Counter-ions that a name gives are not always drawn. Like-named read-outs stand apart in the source and are kept apart here. Blank lines part the entries; values can stand above or below the compound they belong to.
Tests used:
PDGFR-β = PDGFR-β (Homo sapiens, UniProt P09619); test: Kinase inhibition, whole-cell assay, PDGFR-β; assay type: cell-based
EGFR = EGFR (Homo sapiens, UniProt P00533); test: Kinase inhibition, whole-cell assay, EGFR; assay type: cell-based
MDA-MB-435 cancer cells = test: Antiproliferative effect in MDA-MB-435 cancer cells (SRB assay); assay type: cell-based
A-10 cells = test: Microtubule depolymerization, cell-based phenotypic assay in A-10 cells
A431 = A431 cytotoxicity; details: Homo sapiens
MDA-MB-435 xenograft = MDA-MB-435 xenograft trial; details: IP 75 mg/kg; for adverse effects / toxicity in xenograft trial: cumulative dosing
PC43-10 (RFC) = test: Proliferation inhibition, RFC-expressing PC43-10 cells; assay type: cell-based, Chinese hamster; details: Table 11
Excerpt: (§1) AGF215, AGF234 and AGF263 were compared to AGF23 as inhibitors of proliferation of engineered Chinese hamster ovary (CHO) cells expressing human PCFT (R2/PCFT4), FRα (RT16), or RFC (PC43-10).

RT16 (FRα) = test: Proliferation inhibition, FRα-expressing RT16 cells; assay type: cell-based, Chinese hamster
Excerpt: as §1

D4 (FRβ) = test: Proliferation inhibition, FRβ-expressing D4 cells; assay type: cell-based
KB (RFC/FRα/PCFT) = test: Growth inhibition of KB tumor cells; assay type: cell-based, human
Experimental: Cell proliferation was assayed with CellTiter-Blue™ with a fluorescent plate reader.

Parental SK-OV-3 = test: Antiproliferative activity, parental SK-OV-3; assay type: cell-based; details: Homo sapiens, Table 6, read-out: IC50 ± SD Parental SK-OV-3
[1] = test system: Pgp expressing SK-OV-3 MDR1-6-6; test: Antiproliferative activity, Pgp expressing SK-OV-3 MDR1-6-6; assay type: cell-based; details: Homo sapiens, SK-OV-3; Table 6; read-out: IC50 ± SD Pgp expressing SK-OV-3 MDR1-6-6
Parental HeLa = test: Antiproliferative activity, parental HeLa; assay type: cell-based; details: Homo sapiens, Table 7, read-out: IC50 ± SD Parental HeLa
Excerpt: (§2) Another clinically relevant drug resistance mechanism of tubulin-targeting agents is the overexpression of the βIII isotype of tubulin.

[2] = test system: β-III overexpressing HeLa; test: Antiproliferative activity, β-III overexpressing HeLa; assay type: cell-based; details: Homo sapiens, HeLa; Table 7; read-out: IC50 ± SD β-III overexpressing HeLa
Excerpt: as §2

[3] = Table 1, IC50 ± SD, read-out: Kinase inhibition IC50 [whole-cell assays] PDGFR-β
[4] = Table 1, IC50 ± SD, read-out: Kinase inhibition IC50 [whole-cell assays] EGFR
[5] = Homo sapiens, MDA-MB-435, read-out: MDA-MB-435 IC50
[6] = Rattus norvegicus, A10, read-out: Microtubule depolymerization EC50
[7] = A-431, read-out: A431 cytotoxicity, Table 1, IC50 ± SD
[8] = Table 3, read-out: MDA-MB-435 IC50
[9] = Table 3, read-out: Microtubule depolymerization EC50
[10] = with folic acid (+FA), read-out: IC50 FRα RT16 (+FA)
[11] = Table 11, read-out: IC50 FRβ D4
[12] = with folic acid (+FA), read-out: IC50 FRβ D4 (+FA)
[13] = Table 11, read-out: IC50 RFC/FRα/PCFT KB
[14] = with folic acid (+FA), read-out: IC50 RFC/FRα/PCFT KB (+FA)
[15] = Rattus norvegicus, A10, read-out: EC50 in A-10 cells (Concentration that causes 50% tubulin loss in A-10 cells), Table 4, Section II compounds
[16] = Homo sapiens, MDA-MB-435, Table 4, Section II compounds, SRB assay, read-out: IC50 ± SD (MDA-MB-435) Cancer cells

EGFR, sequence (P00533 25-1210, species assumed): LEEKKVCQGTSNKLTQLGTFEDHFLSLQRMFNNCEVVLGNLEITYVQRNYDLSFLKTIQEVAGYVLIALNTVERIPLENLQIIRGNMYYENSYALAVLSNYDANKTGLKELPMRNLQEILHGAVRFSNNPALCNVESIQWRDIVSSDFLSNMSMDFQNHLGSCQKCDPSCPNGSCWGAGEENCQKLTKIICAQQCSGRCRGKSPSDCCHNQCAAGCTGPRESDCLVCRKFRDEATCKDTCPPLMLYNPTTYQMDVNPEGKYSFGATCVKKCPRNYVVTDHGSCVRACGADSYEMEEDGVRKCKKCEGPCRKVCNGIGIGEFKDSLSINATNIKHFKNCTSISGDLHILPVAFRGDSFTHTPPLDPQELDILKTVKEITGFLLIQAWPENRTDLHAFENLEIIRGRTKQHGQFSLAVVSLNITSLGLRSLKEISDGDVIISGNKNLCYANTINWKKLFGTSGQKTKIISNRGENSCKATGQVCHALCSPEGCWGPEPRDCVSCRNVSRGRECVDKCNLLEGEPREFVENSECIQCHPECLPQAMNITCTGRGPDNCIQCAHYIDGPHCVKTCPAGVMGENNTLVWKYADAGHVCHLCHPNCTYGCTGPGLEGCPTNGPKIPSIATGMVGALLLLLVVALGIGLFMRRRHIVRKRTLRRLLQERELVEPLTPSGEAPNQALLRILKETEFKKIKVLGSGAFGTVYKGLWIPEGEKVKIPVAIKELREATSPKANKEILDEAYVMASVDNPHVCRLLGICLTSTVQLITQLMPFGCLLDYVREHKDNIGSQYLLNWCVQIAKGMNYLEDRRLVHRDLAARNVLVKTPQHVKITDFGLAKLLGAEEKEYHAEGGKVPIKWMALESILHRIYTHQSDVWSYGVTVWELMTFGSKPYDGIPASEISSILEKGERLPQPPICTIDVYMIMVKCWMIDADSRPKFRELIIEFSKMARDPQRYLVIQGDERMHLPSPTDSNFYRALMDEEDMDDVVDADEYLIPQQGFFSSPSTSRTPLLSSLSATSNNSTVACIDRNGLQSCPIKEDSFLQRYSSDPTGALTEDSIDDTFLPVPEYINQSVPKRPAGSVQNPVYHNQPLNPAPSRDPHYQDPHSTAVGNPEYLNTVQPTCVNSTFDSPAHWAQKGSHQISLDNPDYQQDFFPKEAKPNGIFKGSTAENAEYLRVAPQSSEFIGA
PDGFR-β, sequence (P09619 33-1106, species assumed): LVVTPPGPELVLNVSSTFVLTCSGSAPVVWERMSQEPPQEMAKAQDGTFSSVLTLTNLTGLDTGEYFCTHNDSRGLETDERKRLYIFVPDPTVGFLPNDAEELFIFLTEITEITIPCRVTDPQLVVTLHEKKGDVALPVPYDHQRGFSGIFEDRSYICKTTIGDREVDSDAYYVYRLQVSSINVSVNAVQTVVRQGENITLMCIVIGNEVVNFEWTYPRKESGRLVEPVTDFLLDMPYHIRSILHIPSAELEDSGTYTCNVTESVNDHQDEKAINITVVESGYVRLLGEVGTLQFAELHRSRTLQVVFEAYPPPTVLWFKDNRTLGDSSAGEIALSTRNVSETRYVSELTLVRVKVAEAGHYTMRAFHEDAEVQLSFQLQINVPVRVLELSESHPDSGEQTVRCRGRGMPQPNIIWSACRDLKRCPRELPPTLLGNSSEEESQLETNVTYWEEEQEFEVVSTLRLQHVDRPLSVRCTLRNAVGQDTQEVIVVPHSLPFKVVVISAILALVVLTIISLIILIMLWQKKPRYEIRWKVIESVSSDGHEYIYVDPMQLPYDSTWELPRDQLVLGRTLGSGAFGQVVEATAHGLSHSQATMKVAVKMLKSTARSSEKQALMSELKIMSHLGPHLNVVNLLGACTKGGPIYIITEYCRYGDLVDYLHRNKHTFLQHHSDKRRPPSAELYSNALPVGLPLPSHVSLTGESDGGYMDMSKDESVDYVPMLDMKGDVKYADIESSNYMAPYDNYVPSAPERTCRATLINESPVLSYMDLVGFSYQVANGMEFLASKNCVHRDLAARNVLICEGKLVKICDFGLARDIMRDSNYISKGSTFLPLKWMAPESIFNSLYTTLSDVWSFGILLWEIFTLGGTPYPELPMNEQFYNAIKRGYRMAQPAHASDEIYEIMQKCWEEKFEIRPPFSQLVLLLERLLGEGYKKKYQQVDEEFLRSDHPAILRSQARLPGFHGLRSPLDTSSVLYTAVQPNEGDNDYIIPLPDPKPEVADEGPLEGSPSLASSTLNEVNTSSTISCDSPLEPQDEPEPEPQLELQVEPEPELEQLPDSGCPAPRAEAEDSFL

SMILES: COc1ccc(N(C)c2nc(C)nc3cc[nH]c23)cc1 [1•HCl]
IC50 (PDGFR-β; [3]): 250 ± 20.6 nM
IC50 (EGFR; [4]): 29.5 ± 3.1 nM
IC50 (MDA-MB-435 cancer cells; [5]): 96 ± 5.3 nM
EC50 (A-10 cells; [6]): 1200 nM
IC50 (A431; [7]): 215 ± 30.1 nM

SMILES: COc1ccc(N(C)c2nc(C)nc3ccn(C)c23)cc1 [2•HCl]
IC50 (PDGFR-β; [3]): 67 ± 10.2 nM
IC50 (PDGFR-β; Table 3b, unit inferred, read-out: PDGFR kinase inhibition): > 200 nM
IC50 (EGFR; [4]): 25.2 ± 0.41 nM
IC50 (EGFR; Table 3b, unit inferred, read-out: EGFR kinase inhibition): 89.3 ± 9.2 nM
IC50 (MDA-MB-435 cancer cells; [5]): 4.3 ± 0.3 nM
IC50 (MDA-MB-435 cancer cells; Homo sapiens, read-out: IC50 ± SD in MDA-435 Cells): 4.3 ± 0.3 nM
EC50 (A-10 cells; Rattus norvegicus, A10, read-out: EC50 for Microtubule Depolymerization in A · 10 Cells): 7.4 nM
EC50 (A-10 cells; [6]): 7.4 nM
IC50 (A431; [7]): 8.8 ± 0.9 nM
IC50 (A431; A-431, read-out: A431 cytotoxicity, Table 3b, unit inferred): 107 ± 18 nM
final average tumor mass compared to the vehicle (MDA-MB-435 xenograft; Day 15): statistically significant (p<0.001) lower final average tumor mass
mouse weight change (MDA-MB-435 xenograft; compared to the vehicle): recoverable weight loss
adverse effects / toxicity in xenograft trial (MDA-MB-435 xenograft; 75 mg/kg): noticeable adverse effects on the central nervous system
adverse effects / toxicity in xenograft trial (MDA-MB-435 xenograft; listed as AG 141, 75 mg/kg): severe seizures in two mice
adverse effects / toxicity in xenograft trial (MDA-MB-435 xenograft; listed as AG141, 75 mg/kg): unacceptable cumulative CNS toxicities
tumor growth during the trial (MDA-MB-435 xenograft; nude mice): inhibited tumor growth

SMILES: CSc1ccc(N(C)c2nc(C)nc3cc[nH]c23)cc1 [4•HCl]
IC50 (MDA-MB-435 cancer cells; [8]): 49.9 ± 10.4 nM
EC50 (A-10 cells; [9]): 1100 nM

SMILES: CSc1ccc(N(C)c2nc(C)nc3ccn(C)c23)cc1 [5•HCl]
IC50 (MDA-MB-435 cancer cells; [8]): 6.2 ± 1 nM
EC50 (A-10 cells; [9]): 23 nM

SMILES: COc1ccc(N(C)c2nc(C)nc3ccn(C(C)C)c23)cc1.Cl [AG174]
antitumor effects (MDA-MB-435 xenograft; MDA-MB-435 xenograft): highly statistically significant (p<0.001) antitumor effects

SMILES: Nc1nc2[nH]c(CCCOc3ccc(C(=O)N[C@@H](CCC(=O)O)C(=O)O)cc3)cc2c(=O)[nH]1 [AGF215]
IC50 (PC43-10 (RFC)): > 1000 nM
IC50 RFC PC43-10 (PC43-10 (RFC)): inactive
IC50 (RT16 (FRα); [10]): > 1000 nM
IC50 (D4 (FRβ); [11]): 3.8 nM
IC50 (D4 (FRβ); [12]): > 1000 nM
IC50 (KB (RFC/FRα/PCFT); [13]): 1.54 nM
IC50 (KB (RFC/FRα/PCFT); [14]): 767 nM

SMILES: Nc1nc2[nH]c(CCCNc3ccc(C(=O)N[C@@H](CCC(=O)O)C(=O)O)cc3)cc2c(=O)[nH]1 [AGF234]
IC50 (PC43-10 (RFC)): 670 nM
IC50 RFC PC43-10 (PC43-10 (RFC)): low level of activity
IC50 (RT16 (FRα); Table 11, read-out: IC50 FRα RT16): 1.4 nM
IC50 (RT16 (FRα); [10]): 136 nM
IC50 (D4 (FRβ); [11]): 0.84 nM
IC50 (D4 (FRβ); [12]): 316 nM
IC50 (KB (RFC/FRα/PCFT); [13]): 0.74 nM
IC50 (KB (RFC/FRα/PCFT); [14]): 938 nM

SMILES: Nc1nc2[nH]c(CCCSc3ccc(C(=O)N[C@@H](CCC(=O)O)C(=O)O)cc3)cc2c(=O)[nH]1 [AGF263]
IC50 (PC43-10 (RFC)): > 1000 nM
IC50 RFC PC43-10 (PC43-10 (RFC)): inactive
IC50 (KB (RFC/FRα/PCFT); [13]): 0.22 nM
IC50 (KB (RFC/FRα/PCFT); [14]): 600 nM

Second part, led by results:

EC50 (A-10 cells; [15]): > 10000 nM
SMILES: Cc1nc2c(c(N(C)c3ccc(S(C)(=O)=O)cc3)n1)CCC2 [Compd 5]

EC50 (A-10 cells; [15]): > 10000 nM
SMILES: CO[C@H]1CC[C@H](N(C)c2nc(C)nc3c2CCC3)CC1 [Compd 13]

IC50 (MDA-MB-435 cancer cells; [16]): 7 ± 0.7 nM
EC50 (A-10 cells; [15]): 25.9 nM
IC50 [1]: 16.4 ± 0.4 nM
IC50 [2]: 9.6 ± 0.9 nM
SMILES: COc1ccc(N(C)c2nc(C)nc3c2CCC3)cc1 [Compound 1]
IC50 (Parental SK-OV-3): 11.3 ± 0.2 nM
IC50 (Parental HeLa): 12 ± 1.2 nM

IC50 (MDA-MB-435 cancer cells; [16]): 15 ± 6.5 nM
EC50 (A-10 cells; [15]): 116 nM
IC50 [1]: 22.7 ± 2.7 nM
IC50 [2]: 14.8 ± 1.5 nM
SMILES: CSc1ccc(N(C)c2nc(C)nc3c2CC(C)C3)cc1 (stereo not shown) [Compound 2]
IC50 (Parental SK-OV-3): 21.2 ± 4 nM
IC50 (Parental HeLa): 19.6 ± 2 nM

IC50 [1]: 29.8 ± 5.6 nM
IC50 [2]: 15 ± 1 nM
SMILES: Cc1nc2c(c(N(C)c3ccc4c(c3)CCO4)n1)CCC2 [Compound 6]
IC50 (Parental SK-OV-3): 18.7 ± 1.2 nM
IC50 (Parental HeLa): 16 ± 1 nM

IC50 [1]: 47.5 ± 2.4 nM
IC50 [2]: 18.8 ± 1.6 nM
SMILES: COc1ccc(N(C)c2nc(C)nc3c2CCC3)cc1C [Compound 7]
IC50 (Parental SK-OV-3): 23.9 ± 2.5 nM
IC50 (Parental HeLa): 23 ± 1 nM

— patent publication US10239880B2, “Cyclopenta[d]pyrimidines and substituted cyclopenta[d]pyrimidines as antitubulin and microtubule targeting agents, monocyclic pyrimidines as tubulin inhibitors, and pyrrolopyrimidines as targeted antifolates and tubulin and multiple receptor tyrosine kinase inhibition and antitumor agents” (Duquesne University of the Holy Spirit, priority 2015, dated 2019)
